One test concerns GM04856 lymphocyte cells. The test can be described thus: Endpoint RT-PCR for iExon-containing spliced product in GM04856 lymphocyte cells. The test is classed as cell-based. To be noted: 10 nM, 1 μM or 10 μM, ~20 h, FIGS. 2A-D and 3-6A. Here is the method: Cell treatment: GM04856 lymphocyte cells were diluted in a medium composed of DMEM, 10% FBS and 1× Pen/Strep to a concentration of 2.5e5 cells/mL. 2 mL (500K cells) were seeded in 6-well plates and recovered for 4 h at 37° C., 5% CO2. Compound dilutions were prepared as 2× compound stock in medium (e.g. for final 100 nM, make a 200 nM stock). After 4 h recovery, 2 mL of the 2× compound stock were added to each well, resulting in 4 mL/well with 1× final compound concentration. The cells were incubated for ˜20 h at 37° C., 5% CO2. After incubation, the cells were pelleted for 5 min at 1000 rpm. The supernatant was vacuum-removed and the cells were resuspended in 350 μl of RLT buffer (w/10 μl/mL beta-mercapto-ethanol, RNeasy kit). Total RNA was isolated using the RNeasy Mini Kit from Qiagen according to the manufacturer's instructions. The concentration of the resulting total RNA was determined using Nanodrop and diluted with water to a final concentration of 25 ng/μL.
Endpoint PCR: 20 μL endpoint RT-PCR5 were set up in 96-well plates using the AgPath-ID One-Step RT-PCR Reagents (Applied Biosystems) according to the manufacturer. Each reaction contained 200 nM forward primer, 200 nM reverse primer, and 50 ng total RNA. […] 10 μL of each RT-PCR reactions were analyzed on 2% 48-well E-Gels (Invitrogen) (pre-run 1 min, run 14 min) and imaged using an BioRad Gel Doc EZ Imager. […]

For test [1], the system named is iExons for certain genes (as specified in the figures). The test can be described thus: Dose dependent production of iExons in the presence of compound or control (DMSO). The test is classed as cell-based. As to conditions: FIGS. 2A-2D, versus control (DMSO). The protocol: In some embodiments, a dose-response assay is performed. […] In another embodiment, the dose-response assay comprises: (a) contacting each well of a microtiter plate containing cells with a different concentration of a compound of Formula (I) or a form thereof; (b) determining the amount of an RNA transcript produced by cells in each well; and (c) assessing the change of the amount of the RNA transcript at the different concentrations of the compound or form thereof. […]
In specific embodiments, the amount of alternatively spliced forms of the RNA transcripts of a particular gene are measured to see if there is an alteration in the amount of one, two or more alternatively spliced forms of the RNA transcripts of the gene. In some embodiments, the amount of an isoform(s) encoded by a particular gene is measured to see if there is an alteration in the amount of the isoform(s). In certain embodiments, the levels of spliced forms of RNA are quantified by RT-PCR, RT-qPCR, RNA-Seq, digital color-coded barcode technology, or Northern blot. […] In certain embodiments, splicing is measured in vitro using nuclear extracts. In some embodiments, detection is based on measuring radioactivity or fluorescence. […] In a specific embodiment, modulation of RNA transcripts is assessed as described in the Examples described herein.

The source of these data is patent US11702646B2, “Methods for modulating RNA splicing” (PTC THERAPEUTICS, INC., priority 2016, dated 2023).

For `CCc1nc(C)cn2nc(-c3cc(=O)n4cc(C5CCN(C)CC5)cc(C)c4n3)cc12` [Compound 774], the “PCR product containing the intronic-derived exon (endpoint RT-PCR, agarose gel)” value in the test with GM04856 lymphocyte cells was “appearance of a slower migrating PCR product containing the intronic-derived exon”. For the same compound, the “dose dependent production of iExons for certain genes” value in test [1] is reported as “dose dependent production of iExons”.
